Assay results published in US7811797B2, “α-isomaltosylglucosaccharide-forming enzyme, process and uses of the same” (Kabushiki Kaisha Hayashibara Seibutsu Kagaku Kenkyujo, priority 2000, dated 2010).

Legend:
[1] = system: α-isomaltosylglucosaccharide-forming enzyme; test: Transfer-acceptor specificity, Enzyme of Strain C9; format: biochemical, Bacillus globisporus C9; parameters: key: −: no saccharide-transferred product was detected through transfer reaction to acceptor; ∀: a saccharide-transferred product was detected in an amount less than one percent through transfer reaction to acceptor; +: a saccharide-transferred product was detected in an amount over one percent but less than ten percent through transfer reaction to acceptor; ++: a saccharide-transferred product was detected in an amount over ten percent through transfer reaction to acceptor; settings: acceptor 1.6%, PINE-DEX #100 donor 4%, one unit/g donor, 30° C., pH 6.0, 24 hours
Method: (§1) Using different saccharides, it was tested whether the saccharides were used as transferring-acceptors for the α-isomaltosylglucosaccharide-forming enzyme of the present invention. A solution of D-glucose, D-xylose, L-xylose, D-galactose, D-fructose, D-mannose, D-arabinose, D-fucose, D-psicose, L-sorbose, L-rhamnose, methyl-α-glucopyranoside, methyl-β-glucopyranoside, N-acetyl-glucosamine, sorbitol, trehalose, isomaltose, isomaltotriose, cellobiose, gentibiose, glycerol, maltitol, lactose, sucrose, α-cyclodextrin, β-cyclodextrin, γ-cyclodextrin, or L-ascorbic acid was prepared.
(§2) To each solution with a saccharide concentration of 1.6% was added “PINE-DEX #100”, a partial starch hydrolysate, as a saccharide donor, to give a concentration of 4%, and admixed with one unit/g saccharide donor, d.s.b., of either of purified specimens of α-isomaltosylglucosaccharide-forming enzyme from Bacillus globisporus C9 obtained by the method in Experiment 4-2, Bacillus globisporus C11 obtained by the method in Experiment 7-2, Bacillus globisporus N75 obtained by the method in Experiment 11-2, or Arthrobacter globiformis A19 obtained by the method in Experiment 15-2, and incubated at 30° C. and pH 6.0, except that pH 8.4 was used for the enzyme from Arthrobacter globiformis A19, for 24 hours. The reaction mixtures of the post-enzymatic reactions were analyzed on gas chromatography (abbreviated as “GLC” hereinafter) for monosaccharides and disaccharides as acceptors, and on HPLC for trisaccharides as acceptors to confirm whether these saccharides could be used as their transfer acceptors. In the case of performing GLC, the following apparatuses and conditions are used: GLC apparatus, “GC-16A” commercialized by Shimadzu Corporation, Tokyo, Japan; column, a stainless-steel column, 3 mm in diameter and 2 m in length, packed with 2% “SILICONE OV-17/[…]”, commercialized by GL Sciences Inc., Tokyo, Japan; carrier gas, nitrogen gas at a flow rate of 40 ml/min under temperature conditions of increasing from 160° C. to 320° C. at an increasing temperature rate of 7.5° C./min; and detection, a hydrogen flame ionization detector. In the case of HPLC analysis, the apparatuses and conditions used are: HPLC apparatus, “CCPD” commercialized by Tosoh Corporation, Tokyo, Japan; column, “ODS-AQ-303” commercialized by YMC Co., Ltd., Tokyo, Japan; eluent, water at a flow rate of 0.5 ml/min; and detection, a differential refractometer.

[2] = system: α-isomaltosylglucosaccharide-forming enzyme; test: Transfer-acceptor specificity, Enzyme of Strain C11; format: biochemical, Bacillus globisporus C11; parameters: key: −: no saccharide-transferred product was detected through transfer reaction to acceptor; ∀: a saccharide-transferred product was detected in an amount less than one percent through transfer reaction to acceptor; +: a saccharide-transferred product was detected in an amount over one percent but less than ten percent through transfer reaction to acceptor; ++: a saccharide-transferred product was detected in an amount over ten percent through transfer reaction to acceptor; settings: acceptor 1.6%, PINE-DEX #100 donor 4%, one unit/g donor, 30° C., pH 6.0, 24 hours
Method: as §1, §2

[3] = system: α-isomaltosylglucosaccharide-forming enzyme; test: Transfer-acceptor specificity, Enzyme of Strain N75; format: biochemical, Bacillus globisporus N75; parameters: key: −: no saccharide-transferred product was detected through transfer reaction to acceptor; ∀: a saccharide-transferred product was detected in an amount less than one percent through transfer reaction to acceptor; +: a saccharide-transferred product was detected in an amount over one percent but less than ten percent through transfer reaction to acceptor; ++: a saccharide-transferred product was detected in an amount over ten percent through transfer reaction to acceptor; settings: acceptor 1.6%, PINE-DEX #100 donor 4%, one unit/g donor, 30° C., pH 6.0, 24 hours
Method: as §1, §2

[4] = system: α-isomaltosylglucosaccharide-forming enzyme; test: Transfer-acceptor specificity, Enzyme of Strain A19; format: biochemical, Arthrobacter globiformis A19; settings: acceptor 1.6%, PINE-DEX #100 donor 4%, one unit/g donor, 30° C., pH 8.4, 24 hours
Method: as §1, §2

Structure (SMILES) | Product of transferring reaction, Enzyme of Strain C9 [1] | Product of transferring reaction, Enzyme of Strain C11 [2] | Product of transferring reaction, Enzyme of Strain N75 [3] | Product of transferring reaction, Enzyme of Stain A19 [4]
O=C[C@@H](O)[C@H](O)[C@H](O)CO [D-Arabinose] | ∀ (a saccharide-transferred product was detected in an amount less than one percent through transfer reaction to acceptor) | ∀ (a saccharide-transferred product was detected in an amount less than one percent through transfer reaction to acceptor) | ∀ (a saccharide-transferred product was detected in an amount less than one percent through transfer reaction to acceptor) | ∀ (a saccharide-transferred product was detected in an amount less than one percent through transfer reaction to acceptor)
O=C(CO)[C@@H](O)[C@H](O)[C@H](O)CO [D-Fructose] | + (a saccharide-transferred product was detected in an amount over one percent but less than ten percent through transfer reaction to acceptor) | + (a saccharide-transferred product was detected in an amount over one percent but less than ten percent through transfer reaction to acceptor) | + (a saccharide-transferred product was detected in an amount over one percent but less than ten percent through transfer reaction to acceptor) | + (a saccharide-transferred product was detected in an amount over one percent but less than ten percent through transfer reaction to acceptor)
C[C@@H](O)[C@H](O)[C@H](O)[C@@H](O)C=O [D-Fucose] | + (a saccharide-transferred product was detected in an amount over one percent but less than ten percent through transfer reaction to acceptor) | + (a saccharide-transferred product was detected in an amount over one percent but less than ten percent through transfer reaction to acceptor) | + (a saccharide-transferred product was detected in an amount over one percent but less than ten percent through transfer reaction to acceptor) | ∀ (a saccharide-transferred product was detected in an amount less than one percent through transfer reaction to acceptor)
O=C[C@H](O)[C@@H](O)[C@@H](O)[C@H](O)CO [D-Galactose] | + (a saccharide-transferred product was detected in an amount over one percent but less than ten percent through transfer reaction to acceptor) | + (a saccharide-transferred product was detected in an amount over one percent but less than ten percent through transfer reaction to acceptor) | + (a saccharide-transferred product was detected in an amount over one percent but less than ten percent through transfer reaction to acceptor) | ∀ (a saccharide-transferred product was detected in an amount less than one percent through transfer reaction to acceptor)
O=C[C@H](O)[C@@H](O)[C@H](O)[C@H](O)CO [D-Glucose, reference compound] | + (a saccharide-transferred product was detected in an amount over one percent but less than ten percent through transfer reaction to acceptor) | + (a saccharide-transferred product was detected in an amount over one percent but less than ten percent through transfer reaction to acceptor) | + (a saccharide-transferred product was detected in an amount over one percent but less than ten percent through transfer reaction to acceptor) | + (a saccharide-transferred product was detected in an amount over one percent but less than ten percent through transfer reaction to acceptor)
O=C[C@@H](O)[C@@H](O)[C@H](O)[C@H](O)CO [D-Mannose] | − | − | − | ∀ (a saccharide-transferred product was detected in an amount less than one percent through transfer reaction to acceptor)
O=C(CO)[C@H](O)[C@H](O)[C@H](O)CO [D-Psicose] | + (a saccharide-transferred product was detected in an amount over one percent but less than ten percent through transfer reaction to acceptor) | + (a saccharide-transferred product was detected in an amount over one percent but less than ten percent through transfer reaction to acceptor) | + (a saccharide-transferred product was detected in an amount over one percent but less than ten percent through transfer reaction to acceptor) | + (a saccharide-transferred product was detected in an amount over one percent but less than ten percent through transfer reaction to acceptor)
O=C[C@H](O)[C@@H](O)[C@H](O)CO [D-Xylose] | ++ (a saccharide-transferred product was detected in an amount over ten percent through transfer reaction to acceptor) | ++ (a saccharide-transferred product was detected in an amount over ten percent through transfer reaction to acceptor) | ++ (a saccharide-transferred product was detected in an amount over ten percent through transfer reaction to acceptor) | + (a saccharide-transferred product was detected in an amount over one percent but less than ten percent through transfer reaction to acceptor)
OCC(O)CO [Glycerol] | + (a saccharide-transferred product was detected in an amount over one percent but less than ten percent through transfer reaction to acceptor) | + (a saccharide-transferred product was detected in an amount over one percent but less than ten percent through transfer reaction to acceptor) | + (a saccharide-transferred product was detected in an amount over one percent but less than ten percent through transfer reaction to acceptor) | + (a saccharide-transferred product was detected in an amount over one percent but less than ten percent through transfer reaction to acceptor)
O=C1O[C@H]([C@@H](O)CO)C(O)=C1O [L-Ascorbic acid] | + (a saccharide-transferred product was detected in an amount over one percent but less than ten percent through transfer reaction to acceptor) | + (a saccharide-transferred product was detected in an amount over one percent but less than ten percent through transfer reaction to acceptor) | + (a saccharide-transferred product was detected in an amount over one percent but less than ten percent through transfer reaction to acceptor) | + (a saccharide-transferred product was detected in an amount over one percent but less than ten percent through transfer reaction to acceptor)
